Values after ≈ are worked out from the molar mass of the structure shown.
What was measured:
[1] = test system: PC3, RKOp21 and SKOV-3 cell lines; assay: XTT cytotoxicity assay, mean over all three cell lines; format: cell-based, human; conditions: mean value over all three cell lines
Procedure, shortened: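 Cells had 2 days of continuous compound exposure, then 3 h with XTT-PMS at 37 °C, 5% CO2 to form formazan from living cells. The value is % inhibition of cell growth, averaged over PC3, RKOp21 and SKOV-3.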

[2] = test system: Trypanosoma cruzi (Tulahuan-LACZ amstigotes in PEM); assay: In vitro drug activity assay, protozoon A; format: cell-based; conditions: amastigotes in murine peritoneal macrophages, 3 days
Method: In vitro activity of selected compounds of the invention against different protozoa was assessed as follows.
Murine (CD1) peritoneal macrophages were harvested 24 hours after starch induction and dispensed into 96-well plates at a concentration of 4×10^5 mL. After 24 hours, the cells were infected with Trypanosoma cruzi Tulahuan LAC-Z amastigotes (grown and cultured according to Buckner et al., Infection and Immunity 1999, 67(1): 403-409). 24 hours later, the infected cells were exposed to the test compounds (compounds of the invention as well as known prior art compounds) for 3 days and 50 μL of 500 μM CPRG-1% Nonidet P-40 was added to each well. The plates were read after 2 to 5 hours at 570 nm (Buckner et al., Antimicrobial Agents and Chemotherapy 1996, 40(11): 2592-2597). ED50 values were calculated with Msxlfit (IDBS).
The following protozoa were assessed: • A) Trypanosoma cruzi (Tulahuan-LACZ amstigotes in PEM, Lorente S O et al., Antimicrobial agents and chemotherapy 2004, 48(8): 2937-2950; Buckner et al., Infection and Immunity 1999, 67(1): 403-409; Buckner et al., Antimicrobial Agents and Chemotherapy 1996, 40(11): 2592-2597) • B) Trypanosoma brucei rhodesiense (strain STIB900, Lorente S O et al., Antimicrobial agents and chemotherapy 2004, 48(8): 2937-2950; Habtemariam S, BMC Pharmacology 2003, 3:6) • C) Plasmodium falciparum (strain K1, Korsinczky M et al., Antimicrobial agents and chemotherapy 2000, 44(8): 2100-2108; Thaitong S and Beale G H, Trans. R. Soc. Trop. Med. Hyg. 1981, 75: 271-273; Trager W and Jensen J B, Science 1976, 193: 673-675) • D) Plasmodium faiciparum (strain 3D7, Mu et al., PLoS Biology 2005, 3(10): e335)

[3] = test system: Streptococcus pneumoniae DSM 11967 (ATCC 49619); assay: Anti-bacterial bouillon microdilution assay (MIC), bacterium B; format: cell-based; conditions: Streptococcus pneumoniae DSM 11967, 24 h
Method: Selected compounds of the invention were tested in a bouillon microdilution assay method according to the DIN 58940 (www.din.de) guidelines for determination of susceptibility of bacterial strains with regard to cell growth inhibition. The assay method quantifies bacterial cell growth which corresponds to the turbidity of the liquid culture medium by photometric measurement carried out at 595 nm.
The method of MIC determination was performed according to DIN 58940-5. The volumina were adapted according to the microdilution method as described in DIN 58940-7 guideline.
Dependent on water solubility, compounds of the invention were dissolved either in water or ethanol in a concentration of 10 mg/ml. Subsequently, the stock was further diluted in water to a concentration of 512 μg/ml. The following serial dilutions (factor 2) were performed in water resulting in the following […] testing concentrations: 256 μg/ml, 128 μg/ml, 64 μg/ml, 32 μg/ml, 16 μg/ml, 8 μg/ml, 4 μg/ml, 2 μg/ml, 1 μg/ml, 0.5 μg/ml, 0.25 μg/ml and 0.125 μg/ml. Diluted compounds of the invention were transferred in 100 μl volume to the microtiter plate wells.
Pre-cultures of bacteria were grown in appropriate liquid media (refer to ATCC webpage, www.atcc.org) and afterwards were inoculated in corresponding liquid medium. 100 μl of the inoculums [adjusted to an amount of app. 1×10^6 microorganisms per ml (range of 10^5-10^8 microorganisms per ml)] were added to each of the testing compound concentrations and cultivated under the appropriate conditions.
Before and after incubation, bacterial growth was determined by photometric analysis against a positive control containing growing bacteria without compound and a sterile/negative control containing only the medium.

Compound	Mean % INH [1]	ED50 (μg/mL), protozoon A [2]	MIC [3]	MIC, bacterium B [3]
CCCCCCCCCCCCCCCCOP(=O)([O-])OCC[N+](C)(C)C [miltefosine, hexadecylphosphocholine, reference compound]	68.7%	0.63 µg/mL (≈ 1.55 µM)	128 µg/mL (≈ 314 µM)	
CCCCCCCCCCCCCCCCOP(=O)([O-])OCC[N+]1(C)CCCCC1 [Compound 2, Phosphoric acid hexadecyl ester 2-(1-methyl-piperidin-1-yl)-ethyl ester]	36.1%	0.50 µg/mL (≈ 1.12 µM)		8 µg/mL (≈ 17.9 µM)
